Measured values from article PMC9632963, “Preclinical characterization and phase I clinical trial of CT053PTSA targets MET, AXL, and VEGFR2 in patients with advanced solid tumors” (Frontiers in Immunology, 2022).

System: patients with advanced solid tumors
Assay: Phase I trial: safety, tolerability, DLT, MTD (CTCAE v4.0)
Assay type: in vivo
From the text: Eligible patients had at least one measurable lesion per RECIST v 1.1, Eastern Cooperative Oncology Group (ECOG) performance status of 0 or 1, and adequate hematological, renal, cardiac and hepatic functions. The primary objectives were to assess safety and tolerability as well as to determine the MTD, DLT, and dose recommended for further study. The secondary objectives were to assess the PK and preliminary efficacy of CT053PTSA.
An initial accelerated titration design was used in the 15 and 30 mg QD cohorts, and the “3+3” schema was used starting in the 60 mg QD cohort. […] The study protocol was approved by an institutional review board at Sun Yat-sen University Cancer Center. Written informed consent was obtained from all the patients before enrollment.
Descriptive statistics of safety are presented per CTCAE v4.0. Subjects who received at least one dose of CT053PTSA were considered eligible to be evaluated and included in safety analyses. […] According to the RECIST 1.1 criteria, imaging examinations were performed at each specified time point in the protocol. The antitumor activity was measured by RECIST1.1.

Cc1c(C(=O)Nc2ccc(Oc3ccnc4cc(OCC(C)(C)O)ccc34)c(F)c2)c(=O)n(-c2ccccc2)n1C [CT053PTSA]
Nausea, All (30mg (n = 1)): 0 n (%)
Nausea, ≥ G3 (30mg (n = 1)): 0 n (%)
Oropharyngeal pain, All (30mg (n = 1)): 0 n (%)
Oropharyngeal pain, ≥ G3 (30mg (n = 1)): 0 n (%)
Pain, All (30mg (n = 1)): 0 n (%)
Pain, ≥ G3 (30mg (n = 1)): 0 n (%)
Palmar-plantar erythrodysaesthesia syndrome, All (30mg (n = 1)): 0 n (%)
Palmar-plantar erythrodysaesthesia syndrome, ≥ G3 (30mg (n = 1)): 0 n (%)
Platelet count decreased, All (30mg (n = 1)): 0 n (%)
Platelet count decreased, ≥ G3 (30mg (n = 1)): 0 n (%)
Proteinuria, All (30mg (n = 1)): 0 n (%)
Proteinuria, ≥ G3 (30mg (n = 1)): 0 n (%)
Pyrexia, All (30mg (n = 1)): 0 n (%)
Pyrexia, ≥ G3 (30mg (n = 1)): 0 n (%)
Sinus bradycardia, All (30mg (n = 1)): 0 n (%)
Sinus bradycardia, ≥ G3 (30mg (n = 1)): 0 n (%)
Stomatitis, All (30mg (n = 1)): 0 n (%)
Stomatitis, ≥ G3 (30mg (n = 1)): 0 n (%)
Vomiting, All (30mg (n = 1)): 0 n (%)
Vomiting, ≥ G3 (30mg (n = 1)): 0 n (%)
leukopenia, All (30mg (n = 1)): 0 n (%)
leukopenia, ≥ G3 (30mg (n = 1)): 0 n (%)
neutropenia, All (30mg (n = 1)): 0 n (%)
neutropenia, ≥ G3 (30mg (n = 1)): 0 n (%)
transaminase elevation, All (30mg (n = 1)): 0 n (%)
transaminase elevation, ≥ G3 (30mg (n = 1)): 0 n (%)
Anaemia, All (60mg (n = 6)): 0 n (%)
Anaemia, ≥ G3 (60mg (n = 6)): 0 n (%)
Blood chloride decreased, All (60mg (n = 6)): 0 n (%)
Blood chloride decreased, ≥ G3 (60mg (n = 6)): 0 n (%)
Blood creatinine increased, All (60mg (n = 6)): 0 n (%)
Blood creatinine increased, ≥ G3 (60mg (n = 6)): 0 n (%)
Blood potassium decreased, All (60mg (n = 6)): 0 n (%)
Blood potassium decreased, ≥ G3 (60mg (n = 6)): 0 n (%)
Blood sodium decreased, All (60mg (n = 6)): 0 n (%)
Blood sodium decreased, ≥ G3 (60mg (n = 6)): 0 n (%)
Blood uric acid increased, All (60mg (n = 6)): 0 n (%)
Blood uric acid increased, ≥ G3 (60mg (n = 6)): 0 n (%)
Decreased appetite, All (60mg (n = 6)): 0 n (%)
Decreased appetite, ≥ G3 (60mg (n = 6)): 0 n (%)
Diarrhea, All (60mg (n = 6)): 0 n (%)
Diarrhea, ≥ G3 (60mg (n = 6)): 0 n (%)
Dizziness, All (60mg (n = 6)): 0 n (%)
Dizziness, ≥ G3 (60mg (n = 6)): 0 n (%)
Dry mouth, All (60mg (n = 6)): 0 n (%)
Dry mouth, ≥ G3 (60mg (n = 6)): 0 n (%)
Electrocardiogram QT prolonged, All (60mg (n = 6)): 1 (16.7) n (%)
Electrocardiogram QT prolonged, ≥ G3 (60mg (n = 6)): 0 n (%)
Electrolyte imbalance, All (60mg (n = 6)): 0 n (%)
Electrolyte imbalance, ≥ G3 (60mg (n = 6)): 0 n (%)
Hemoglobin decreased, All (60mg (n = 6)): 0 n (%)
Hemoglobin decreased, ≥ G3 (60mg (n = 6)): 0 n (%)
Hypertension, All (60mg (n = 6)): 0 n (%)
Hypertension, ≥ G3 (60mg (n = 6)): 0 n (%)
Hyponatremia, All (60mg (n = 6)): 0 n (%)
Hyponatremia, ≥ G3 (60mg (n = 6)): 0 n (%)
Hypoparathyroidism, All (60mg (n = 6)): 0 n (%)
Hypoparathyroidism, ≥ G3 (60mg (n = 6)): 0 n (%)
Mouth ulceration, All (60mg (n = 6)): 0 n (%)
Mouth ulceration, ≥ G3 (60mg (n = 6)): 0 n (%)
Nausea, All (60mg (n = 6)): 0 n (%)
Nausea, ≥ G3 (60mg (n = 6)): 0 n (%)
Oropharyngeal pain, All (60mg (n = 6)): 0 n (%)
Oropharyngeal pain, ≥ G3 (60mg (n = 6)): 0 n (%)
Pain, All (60mg (n = 6)): 0 n (%)
Pain, ≥ G3 (60mg (n = 6)): 0 n (%)
Palmar-plantar erythrodysaesthesia syndrome, All (60mg (n = 6)): 0 n (%)
Palmar-plantar erythrodysaesthesia syndrome, ≥ G3 (60mg (n = 6)): 0 n (%)
Platelet count decreased, All (60mg (n = 6)): 1 (16.7) n (%)
Platelet count decreased, ≥ G3 (60mg (n = 6)): 0 n (%)
Proteinuria, All (60mg (n = 6)): 0 n (%)
Proteinuria, ≥ G3 (60mg (n = 6)): 0 n (%)
Pyrexia, All (60mg (n = 6)): 0 n (%)
Pyrexia, ≥ G3 (60mg (n = 6)): 0 n (%)
Sinus bradycardia, All (60mg (n = 6)): 0 n (%)
Sinus bradycardia, ≥ G3 (60mg (n = 6)): 0 n (%)
Stomatitis, All (60mg (n = 6)): 0 n (%)
Stomatitis, ≥ G3 (60mg (n = 6)): 0 n (%)
Vomiting, All (60mg (n = 6)): 0 n (%)
Vomiting, ≥ G3 (60mg (n = 6)): 0 n (%)
leukopenia, All (60mg (n = 6)): 1 (16.7) n (%)
leukopenia, ≥ G3 (60mg (n = 6)): 0 n (%)
neutropenia, All (60mg (n = 6)): 1 (16.7) n (%)
neutropenia, ≥ G3 (60mg (n = 6)): 0 n (%)
transaminase elevation, All (60mg (n = 6)): 3 (50) n (%)
transaminase elevation, ≥ G3 (60mg (n = 6)): 0 n (%)
Anaemia, All (100mg (n = 7)): 1 (14.3) n (%)
Anaemia, ≥ G3 (100mg (n = 7)): 0 n (%)
Blood chloride decreased, All (100mg (n = 7)): 1 (14.3) n (%)
Blood chloride decreased, ≥ G3 (100mg (n = 7)): 0 n (%)
Blood creatinine increased, All (100mg (n = 7)): 0 n (%)
Blood creatinine increased, ≥ G3 (100mg (n = 7)): 0 n (%)
Blood potassium decreased, All (100mg (n = 7)): 0 n (%)
Blood potassium decreased, ≥ G3 (100mg (n = 7)): 0 n (%)
Blood sodium decreased, All (100mg (n = 7)): 0 n (%)
